# Measurements taken from patent publication US9572820B2, “Methods of treating autophagy-associated disorders and related pharmaceutical compositions, diagnostics, screening techniques and kits” (priority 2011, dated 2017).
# Non-standard residues stand in square brackets, D forms with d. Residues, ends and D or L forms follow the SMILES beside them. Nle = CCCC[C@H](N)C(=O)O
# B1: IL-1α: cytokine used at 20 ng/ml to promote Th17 differentiation (protein, UniProt P01583 113-271, looked up)
# Interleukin-1 alpha: SAPFSFLSNVKYNFMRIIKYEFILNDALNQSIIRANDQYLTAAALHNLDEAVKFDMGAYKSSKDDAKITVILRISKTQLYVTAQDEDQPVLLKEMPEIPKTITGSETNLLFFWETHGTKNYFTSVAHPNLFIATKQDYWVCLAGGPPSITDFQILENQA
# Tested on: IL-1β
# Assay: IL-1β secretion from LPS-pretreated BMMs (ELISA)
# Type: cell-based, murine
# Conditions: pp242 in full medium, 1 h
# Description: FIG. 1X3. induction of autophagy enhances IL-1β secretion. (A) Atg5fl/fl Cre^− and Atg^5fl/fl Cre^+ bone marrow-derived macrophages (BMMs), pretreated overnight with 100 ng/ml LPS, were stimulated for 1 h with the inflammasome agonist nigericin ([…]) with (Starvation; EBSS) or without (Full; full medium) autophagic induction. Cell culture supernatants were assayed for murine IL-1β by ELISA. Data represent mean values±s.d. (nX3); *Po0.05. (B) LPS-pretreated Atg5fl/fl Cre^− and Atg^5fl/fl Cre^+ BMMs were stimulated with […] nigericin for 1 h in OptiMEM and the release of active caspase-1 and IL-1β was determined by immunoblotting. (C) As in (A), assayed for IL-18. Data represent mean values±s.d. (nX3); *Po0.05. (D) LPS-pretreated BMMs were exposed to alum ([…]) for 1 h with or without autophagic induction by starvation. Secreted IL-1β was measured as in (A). Data represent mean values±s.d. (nX3); *Po0.05. (E) LPS-pretreated BMMs were exposed to silica ([…]) for 1 h with or without autophagic induction by starvation. Secreted IL-1β was measured as in (A). Data represent mean values±s.d. (nX3); *Po0.05. (F) BMMs were transfected with scramble (Scr) control siRNA or siRNAs against ASC and NLRP3. After 48 h following transfection, cells were treated overnight with LPS and subjected to nigericin ([…]) and starvation for 1 h. Data represent mean values±s.d. (nX3); *Po0.05. (G) Immunoblot analysis of ASC and NLRP3 knockdowns. (H) BMMs were transfected with scramble
# FIG. 2X3 Autophagic pathway progression promotes secretion of inflammasome substrates. (A, B) LPS-pretreated BMMs were treated with […] nigericin (Nig) and 100 nM bafilomycin A1 (Baf) with (Starvation) or without (Full) autophagic induction for 1 h and secreted IL-1β (A) and IL-18 (B) were measured. Data represent mean values+s.d. (nX3); *Po0.05. (C) LPS-pretreated BMMs were treated with […] of silica and 100 nM bafilomycin A1 (Baf) with (Starvation) or without (Full) autophagic induction for 1 h and secreted IL-1β were measured. Data represent mean values±s.d. (nX3); *Po0.05. (D) Colocalization of cathepsin B with the basal autophagic machinery factor LC3 and IL-1b. Fluorescence; LC3 (green, Alexa488), IL-1β (red, Alexa568), and cathepsin B (blue, Alexa633). BMMs from GFP-LC3 knockin mice were treated with LPS and then analysed for immunofluorescence. (E) Colocalization line tracing analysis from images in (D). (F) LPS-pretreated BMMs were treated with […] nigericin and cathepsin B inhibitor CA-074 Me […] , with (Starvation) or without (Full) autophagic induction, for 1 h and secreted IL-1β was measured. […] (G) LPS-pretreated Atg^5fl/fl Cr^+ and Atg^5fl/fl Cre^− BMMs were stimulated with […] nigericin for 1 h in OptiMEM and release of cathepsin B was determined by immunoblotting. […]
row,Molecule,secretion of IL-1β
1,CC(C)n1nc(-c2cc3cc(O)ccc3[nH]2)c2c(N)ncnc21 [pp242],increased secretion of IL-1β

# Same assay, conditions: starvation, nigericin, 1 h
row,Molecule,IL-1β secretion
1,CCCNC(=O)[C@H]1O[C@@H]1C(=O)N[C@H](C(=O)N1CCC[C@H]1C(=O)OC)[C@@H](C)CC [CA-074 Me],strongly inhibited IL-1β secretion

# Tested on: LC3-GFP/RFP HeLa cells
# Assay: High-content imaging screen of LC3-GFP/RFP puncta (Cellomics ArrayScan)
# Type: cell-based
# Conditions: LC3-GFP/RFP puncta per cell, 4 hours incubation; hit = 3 standard deviations above or below mean of negative control wells
# Description: FIG. 1X6. Use of Cellomics ArrayScan to detect induction of authophagy. […] Wells were scanned for number, area, or intensity of GFP+ or RFP+ puncta per cell using a Cellomics ArrayScan. Negative control (DMF-treated) wells were also measured. Each dot represents the data from a single well.
# FIG. 2X6. Chemical library screen for modulation of autophagy. LC3-RFP/GFP HeLa cells were incubated with compounds from the chemical library for 4 hours, then fixed in 0.1% PFA. Wells were scanned using a Cellomics ArrayScan. […] Each dot represents the data from a single well.
# FIG. 4X6. […] Wells were scanned using a Cellomics ArrayScan. […] Each dot represents the data from four separate wells, and error bars are standard deviation.
# LC3 is a widely-used marker for autophagic vacuoles. HeLa cells stably transduced with LC3-GFP/RFP tandem construct generate fluorescent autophagic puncta, which are either green/yellow (early autophagosomes) or red (late autophagosomes fused with lysosomes, which degrades the GFP). By quantitating the number or total area of fluorescent puncta per cell, we can detect alterations in autophagic flux and regulation. […]
# Using the above system, we performed two separate screens on a chemical library. This library contains 1,200 FDA-approved compounds, and represents wide functional and chemical diversity. This library spans four 384-well plates, with 64 wells on each plate with DMSO only as negative controls. […] A hit was defined as 3 standard deviations above or below the mean of the negative control wells on a given plate.
row,Molecule,modulation of autophagy (agonist/inducer or antagonist/inhibitor)
1,O=C(Nc1ccccc1)OCC(CN1CCCCC1)OC(=O)Nc1ccccc1 (stereo not drawn) [diperodon],agonists or inducers of autophagy
2,CC(=O)[O-].[Hg+][c]1ccccc1 [phenylmercuric acetate],antagonists or inhibitors of autophagy
3,CC12CC3CC(C)(C1)CC(N)(C3)C2 [memantine],agonists or inducers of autophagy
4,CC[N+](C)(CC)CCC[n+]1c(-c2ccccc2)c2cc(N)ccc2c2ccc(N)cc21.[I-].[I-] [propidium iodide],agonists or inducers of autophagy
5,CN(Cc1cc(Br)cc(Br)c1N)C1CCCCC1 [bromhexine],agonists or inducers of autophagy
6,CCCCc1cc2ccccc2c(OCCN(C)C)n1 [dimethisoquin],agonists or inducers of autophagy
7,CN1CCCC(CC2c3ccccc3Sc3ccccc32)C1 (stereo not drawn) [metixene],agonists or inducers of autophagy
8,CC(C)COCC(CN(Cc1ccccc1)c1ccccc1)N1CCCC1 (stereo not drawn) [bepridil],agonists or inducers of autophagy
9,CNCC(O)c1ccc(OC(=O)C(C)(C)C)c(OC(=O)C(C)(C)C)c1 (stereo not drawn) [dipivefrin],agonists or inducers of autophagy
10,CNCCC=C1c2ccccc2CCc2ccccc21 [nortriptyline],agonists or inducers of autophagy
11,N#Cc1c(Cl)c(Cl)c(Cl)c(C#N)c1Cl [tetrachlorisophthalonitrile],antagonists or inhibitors of autophagy
12,CNCCC=C1c2ccccc2C=Cc2ccccc21 [norcyclobenzaprine],agonists or inducers of autophagy
13,COC(=O)Nc1nc2cc(C(=O)c3ccc(F)cc3)ccc2[nH]1 [flubendazole],agonists or inducers of autophagy
14,"CCN(CC)CCOc1ccc(C(=C(Cl)c2ccccc2)c2ccccc2)cc1.O=C(O)CC(O)(CC(=O)O)C(=O)O [clomiphene citrate (Z,E)]",agonists or inducers of autophagy
15,COCCCC/C(=N\OCCN)c1ccc(C(F)(F)F)cc1 [fluvoxamine],agonists or inducers of autophagy
16,Oc1c(Cl)cc(Cl)c(Cl)c1Cc1c(O)c(Cl)cc(Cl)c1Cl [hexachlorophene],agonists or inducers of autophagy

# Same assay, conditions: from pp242 dose response
row,Molecule,suboptimal dose that did not induce autophagy [µM]
1,CC(C)n1nc(-c2cc3cc(O)ccc3[nH]2)c2c(N)ncnc21 [pp242],~0.06

# Tested on: pro-IL-1β
# Assay: Expression of pro-IL-1β in BMMs
# Type: cell-based, murine
# Conditions: cells treated with bafilomycin A1 or CA-074 Me
# Description: To induce pro-IL-1β expression, cells were pretreated overnight with 100 ng/ml LPS (Sigma). Inflammasome was induced with […] nigericin (Sigma) for 1 h or with […] Alum (Thermoscientific) for 1 h or with […] silica crystals (MIN-U-SIL-15, US Silica) for 1 h or with […] Amyloid-b peptide (Ab; American Peptide Company) fibrils prepared as described (Moore et al, 2002). […] Starvation and other treatments (except for macrophage priming with LPS done in advance) were carried out concurrently (i.e., initiated at the same time).
# For all conditions, cell-free supernatants were assayed by immunoblotting after TCA precipitation for mouse IL-1β p17 (R&D), caspase-1 p10 (Santa Cruz Biotechnology), HMGB1 (Abcam) and Cathepsin B (R&D) or by ELISA for mouse IL-1β (R&D), IL-18 (MBL), and HMGB1 (IBL). Immunofluorescence confocal microscopy was carried out using a Zeiss LSM 510 Meta microscope (laser wavelengths 488, 543, and 633 nm). Antibodies against endogenous proteins IL-1β (Abcam), Sec6 (Shu C Hsu, Rutgers University, NJ, USA), Cathepsin B (R&D), Rab8a (Abcam), GORASP1 (Novus), GORASP2 (ProteinTech Group), GM130 (BD), LC3 (MBL) and GFP (Abcam; for BMMs from GFP-LC3 knock-in transgenic mice) were used for indirect immunofluorescence analysis. […]
row,Molecule,expression of pro-IL-1β
1,CCCNC(=O)[C@H]1O[C@@H]1C(=O)N[C@H](C(=O)N1CCC[C@H]1C(=O)OC)[C@@H](C)CC [CA-074 Me],No differences

# Tested on: naïve CD4 T cells
# Assay: In vitro Th17 polarization of naïve CD4 T cells (intracellular IL-17A, flow cytometry)
# Type: cell-based, mice
# Conditions: with TGF-β 5 ng/ml and IL-6 20 ng/ml; IL-1α or IL-1β 20 ng/ml, day 4
row,Molecule,intracellular levels of IL-17A
1,B1,elevated

# Tested on: LC3-GFP/RFP HeLa cells
# Assay: Chemical library screen in the presence of a suboptimal dose of pp242
# Type: cell-based
# Conditions: suboptimal pp242 (~0.06 uM) plus library compound
row,Molecule,modulation of autophagy in combination with mTOR inhibitor (suboptimal pp242)
1,O=C1NCCN1CCN1CCC(c2cn(-c3ccc(F)cc3)c3ccc(Cl)cc23)CC1 [sertindole],effective as autophagy modulators in combination
2,CCCCC(CC)CN1CN(CC(CC)CCCC)CC(C)(N)C1 (stereo not drawn) [hexetidine],effective as autophagy modulators in combination
3,Cc1cccc(C)c1N=C1NCCCS1 [xylazine],effective as autophagy modulators in combination
4,C[C@H]1O[C@@H](O[C@H]2[C@@H](O)C[C@H](O[C@H]3[C@@H](O)C[C@H](O[C@H]4CC[C@@]5(C)[C@H](CC[C@@H]6[C@@H]5C[C@@H](O)[C@]5(C)[C@@H](C7=CC(=O)OC7)CC[C@]65O)C4)O[C@@H]3C)O[C@@H]2C)C[C@H](O)[C@@H]1O [digoxin],effective as autophagy modulators in combination

# Tested on: IL-1α
# Assay: IL-1α release (ELISA) from LPS+IFN-γ stimulated BMM
# Type: cell-based, murine
# Conditions: Atg5fl/fl LysM-Cre+ BMM, ALLN 100 μM
row,Molecule,excess IL-1α production
1,CCCC[C@@H](C=O)NC(=O)[C@H](CC(C)C)NC(=O)[C@H](CC(C)C)NC(C)=O [ALLN] (Ac-Leu-Leu-[Nle]-aldehyde),completely abrogated

# Same assay, conditions: Atg5fl/fl LysM-Cre− BMM, LPS+IFN-γ, 12 h; 50 μg/ml rapamycin, 10 mM 3-MA or 100 nM Bafilomycin A1
row,Molecule,IL-1α secreted
1,Cn1cnc(N)c2ncnc1-2 [3-methyladenine],significantly increased
